Assay results as given in US5852011A, “Benzimidazole derivatives” (Mitsui Chemicals, Inc., priority 1994, dated 1998).
Values after ≈ are worked out from the molar mass of the structure shown. Structures can show the parent of a compound that is named as a salt. Blank lines part the entries; values can stand above or below the compound they belong to.

Key:
[1] = system: A(adenine)-T(thymine) DNA copolymer; experiment: Change in Tm (melting temperature) of DNA copolymer on addition of compound (Test 1); assay type: binding; conditions: for ΔTm: difference between Tm with and without compound, citrated buffer
Description: To investigate bonding of these compounds with DNA, changes in Tm (melting temperature) were measured. With respect of each of these compounds, the measurement was conducted by determining the difference between Tm measured when a citrated buffer solution of an A(adenine)-T(thymine) DNA copolymer was added with the compound and that measured when the compound was not added. For the measurement, a spectrophotometer ("HITACHI U-3200 MODEL") was used and for temperature control, "HITACHI SPR-10 MODEL" was used.

[2] = system: Colon 26 mouse colon cancer cells; experiment: In vivo antitumor activity, Colon 26 subcutaneously transplanted to female CDF1 mice (Test 4); conditions: caudal vein, tumor weight on day 15
Description: Prepared was a 1×10^7 cells/ml suspension of Colon 26 mouse colon cancer cells in HBSS (Hanks' Balanced Salt Solution). A 0.1 ml portion of the cell suspension was subcutaneously transplanted to a lateroabdominal part of each female CDF1 mouse. After the body weight of the mouse was measured on the following day of the transplantation of the tumor, a solution of a compound (5% glucose solution containing 5% of "Tween 80") was administered into the caudal vein of the mouse. On day 15, a tumor was excised and its weight was measured.
The percentage of the average tumor weight of each experiment group as calculated by supposing that the average tumor weight of the control group not administered with any drug was 100% was calculated as a T/C value.
Corresponding to each compound number, its T/C value is shown. The number in parentheses indicates the concentration of the drug when the T/C value was indicated.

P388 leukemia cells = experiment: In vivo antitumor activity, P388 leukemia intraperitoneally transplanted to female CDF1 mice (Test 3); design: species or system mouse; ILS: unit not given here; conditions: intraperitoneal, one, five and nine days after transplantation
Description: In vivo antitumor activities of these compounds were also studied. P388 leukemia cells (10^6 cells/mouse) were intraperitoneally transplanted to female CDF1 mice. One, five and nine days later, each compound was intraperitoneally administered (at 1, 3 or 10 mg/kg) to the mice. As a blank test, 5% glucose was intraperitoneally administered at 10 ml/kg to mice. Based on the group of the mice in the blank test as a control group, the effects of the individual drugs are shown in terms of ILS. The term "ILS" is represented by the following formula: [formula]
When test animals survived 8 weeks after the administration, the number of those survived was recorded without calculation of ILS.

mouse B16 melanoma cells = experiment: In vitro inhibition of proliferation of tumored cells, mouse B16 melanoma (Test 2); assay type: cell-based; conditions: 3 days in 5% CO2 at 37° C., 96-well plate; for IC50: Mus musculus, B16, 72 h, read-out: 50% Inhibition
Description: A description will next be made of antitumor activities of these compounds. Their antitumor activities were determined by measuring their in vitro inhibition of proliferation of tumored cells. Namely, mouse B16 melanoma cells were spread over a 96-well culture plate. One day later, each drug was applied. The melanoma cells were then incubated for 3 days in 5% CO2 at 37° C. Following the method reported in Cancer Res., 48, 589-601(1988), the concentration of the drug required to induce 50% inhibition on the proliferation was determined. As a comparative example, the results obtained from the application of distamycin are also shown.

binding to DNA indicated by Tm (in words) ([1]; melting temperature of double-stranded DNA): increased Tm value
Compound: Cn1cc(C=O)cc1-c1nc2cc(C(=O)NCCC(=N)N)ccc2[nH]1

Compound: COc1cccc2c1C(=O)c1c(O)c3c(c(O)c1C2=O)C[C@@](O)(C(=O)CO)C[C@@H]3O[C@H]1C[C@H](N)[C@H](O)[C@H](C)O1 [Adriamycin, adriamycin, reference compound]
T/C ([2]; 20 mg/Kg): 40%

Compound: Cn1cc(NC(=O)c2ccc(N(CCCl)CCCl)cc2)cc1-c1nc2cc(C(=O)NCCC(=N)N)ccc2[nH]1 [Compound 1, 1H-2-[4-[4-[N,N-bis(2-chloroethyl)amino]benzoylamino]-1-methylpyrrol-2-yl]benzimidazole-5-[N-(2-amidinoethyl)]carboxamide hydrochloride]
ILS (P388 leukemia cells; 1 mg/kg): 38
50% Inhibition (mouse B16 melanoma cells): 0.23 µg/mL
T/C ([2]; 2 mg/Kg): 29%

Compound: Cn1cc(NC(=O)CCCc2ccc(N(CCCl)CCCl)cc2)cc1-c1nc2cc(C(=O)NCCC(=N)N)ccc2[nH]1 [Compound 4, 1H-2-[4-[4-[4-[N,N-bis(2-chloroethyl)amino]phenyl]butylylamino]-1-methylpyrrol-2-yl]benzimidazole-5-[N-(2-amidinoethyl)]carboxamide hydrochloride]
ΔTm [1]: 17 °C
50% Inhibition (mouse B16 melanoma cells): 0.04 µg/mL

Compound: Cn1cc(NC(=O)c2ccccc2N(CCCl)CCCl)cc1-c1nc2cc(C(=O)NCCC(=N)N)ccc2[nH]1 [Compound 305, 1H-2-[4-[2-[N,N-Bis(2-chloroethyl)amino]benzoylamino]-1-methylpyrrol-2-yl)benzimidazole-5-[N-(2-amidinoethyl)]carboxamide hydrochloride]
ILS (P388 leukemia cells; 10 mg/kg): 22
50% Inhibition (mouse B16 melanoma cells): 4.2 µg/mL

Compound: Cn1cc(NC(=O)c2cc(N(CCCl)CCCl)cc(N(CCCl)CCCl)c2)cc1-c1nc2cc(C(=O)NCCC(=N)N)ccc2[nH]1 [Compound 310, 1H-2-[4-[3,5-Bis[N,N-bis(2-chloroethyl)amino]benzoylamino]-1-methylpyrrol-2-yl]benzimidazole-5-[N-(2-amidinoethyl)]carboxamide hydrochloride]
ILS (P388 leukemia cells; 1 mg/kg): 88
50% Inhibition (mouse B16 melanoma cells): 0.76 µg/mL

IC50 (mouse B16 melanoma cells): 19.8 µg/mL
Compound: Cn1cc(NC=O)cc1-c1nc2cc(C(=O)NCCC(=N)N)ccc2[nH]1 [Compound 318, 1H-2-(4-Formylamino-1-methylpyrrol-2-yl)benzimidazole-5-[N-(2-amidinoethyl)]carboxamide hydrochloride]
ΔTm [1]: 7 °C

Compound: Cn1cc(NC(=O)CNC(=N)N)cc1-c1nc2cc(C(=O)Nc3ccc(N(CCCl)CCCl)cc3)ccc2[nH]1 [Compound 1001, 1H-2-[1-Methyl-4-(2-guanidinoacetylamino)pyrrol-2-yl]benzimidazole-5-[N-[4-[N,N-bis(2-chloroethyl)amino]phenyl]]carboxamide hydrochloride]
ILS (P388 leukemia cells; 10 mg/kg): 115
50% Inhibition (mouse B16 melanoma cells): 0.53 µg/mL
T/C ([2]; 6 mg/Kg): 7%

Compound: Cn1cc(NC(=O)CNC(=N)N)cc1-c1nc2cc(C(=O)NCCc3ccc(N(CCCl)CCCl)cc3)ccc2[nH]1 [Compound 1003, 1H-2-[4-(2-Guanidinoacetylamino)-1-methylpyrrol-2-yl]benzimidazole-5-[N-[2-[4-[N,N-bis(2-chloroethyl)amino]phenyl]ethyl]]carboxamide hydrochloride]
50% Inhibition (mouse B16 melanoma cells): 0.018 µg/mL
T/C ([2]; 0.3 mg/Kg): 41%

Compound: Cc1cc(NC(=O)c2ccc3[nH]c(-c4cc(NC(=O)CNC(=N)N)cn4C)nc3c2)ccc1N(CCCl)CCCl [Compound 1005, 1H-2-[1-Methyl-4-(2-guanidinoacetylamino)pyrrol-2-yl]benzimidazole-5-[N-[3-methyl-4-[N,N-bis(2-chloroethyl)amino]phenyl]]carboxamide dihydrochloride]
50% Inhibition (mouse B16 melanoma cells): 0.65 µg/mL
T/C ([2]; 15 mg/Kg): 20%

Compound: COc1cc(NC(=O)c2ccc3[nH]c(-c4cc(NC(=O)CNC(=N)N)cn4C)nc3c2)ccc1N(CCCl)CCCl [Compound 1009, 1H-2-[1-Methyl-4-(guanidinoacetylamino)pyrrol-2-yl]benzimidazole-5-[N-[3-methoxy-4-[N,N-bis(2-chloroethyl)amino]phenyl]]carboxamide dihydrochloride]
50% Inhibition (mouse B16 melanoma cells): 2.31 µg/mL
T/C ([2]; 10 mg/Kg): 29%

Compound: Cn1cc(NC(=O)CNC(=N)N)cc1-c1nc2cc(C(=O)Nc3ccc(N(CCCl)CCCl)c(C#N)c3)ccc2[nH]1 [Compound 1013, 1H-2-[1-Methyl-4-(guanidinoacetylamino)pyrrol-2-yl]benzimidazole-5-[N-[3-cyano-4-[N,N-bis(2-chloroethyl)amino]phenyl]]carboxamide dihydrochloride]
50% Inhibition (mouse B16 melanoma cells): 0.34 µg/mL
T/C ([2]; 3 mg/Kg): 58%

Compound: Cn1cc(NC(=O)CNC(=N)N)cc1-c1nc2cc(C(=O)Nc3ccc(N(CCCl)CCCl)c(Cl)c3)ccc2[nH]1 [Compound 1017, 1H-2-[1-Methyl-4-(guanidinoacetylamino)pyrrol-2-yl]benzimidazole-5-[N-[3-chloro-4-[N,N-bis(2-chloroethyl)amino]phenyl]]carboxamide dihydrochloride]
50% Inhibition (mouse B16 melanoma cells): 0.78 µg/mL
T/C ([2]; 3 mg/Kg): 30%

Compound: Cc1cc(N(CCCl)CCCl)ccc1NC(=O)c1ccc2[nH]c(-c3cc(NC(=O)CNC(=N)N)cn3C)nc2c1 [Compound 1024, 1H-2-[1-Methyl-4-(guanidinoacetylamino)pyrrol-2-yl]benzimidazole-5-[N-[2-methyl-4-[N,N-bis(2-chloroethyl)amino]phenyl]]carboxamide dihydrochloride]
50% Inhibition (mouse B16 melanoma cells): 0.586 µg/mL
T/C ([2]; 10 mg/Kg): 61%

Compound: CN(C)CCCC(=O)Nc1cc(-c2nc3cc(C(=O)Nc4ccc(N(CCCl)CCCl)cc4)ccc3[nH]2)n(C)c1 [Compound 1256, 1H-2-[1-Methyl-4-[4-(N,N-dimethylamino)butyrylamino]pyrrol-2-yl]benzimidazole-5-[N-[4-[N,N-bis-(2-chloroethyl)amino]phenyl]]carboxamide hydrochloride]
50% Inhibition (mouse B16 melanoma cells): 4.67 µg/mL
T/C ([2]; 15 mg/Kg): 60%

Compound: Cn1cc(NC(=O)c2ccc(N(CCCl)CCCl)cc2)cc1-c1nc2cc(C(=O)Nc3ccc(N(CCCl)CCCl)cc3)ccc2[nH]1 [Compound 2001, 1H-2-[4-[4-[N,N-Bis(2-chloroethyl)amino]benzoylamino]-1-methylpyrrol-2-yl]benzimidazole-5-[N-[4-[N,N-bis(2-chloroethyl)amino]phenyl]]carboxamide]
ILS (P388 leukemia cells; 10 mg/kg): 47
50% Inhibition (mouse B16 melanoma cells): 0.005 µg/mL

Compound: Cn1cc(NC(=O)c2cc(NC(=O)c3cc(NC=O)cn3C)cn2C)cc1C(=O)NCCC(=N)N [Distamycin, distamycin, reference compound]
ΔTm [1]: 10 °C
IC50 (mouse B16 melanoma cells): 36 µg/mL (≈ 74.8 µM)
